# Reference: patent publication US12685734B2, “N6-methyladenosine regulators in uterine fibroids” (The University of Chicago, priority 2021, dated 2026)
# Key:
# [1] = system: Eker rats carrying Tsc2 germline mutation; conditions: early-life exposure during development of the uterus, cited from earlier work
# HuLM cells = assay: Cell proliferation, trypan blue exclusion assay, METTL3 inhibition; assay type: cell-based, human; conditions: 1-10 μM, 24 hours, vs DMSO vehicle, FIG. 9
# Description: The HuLM cell line was cultured and maintained in phenol red-free, Dulbecco's Modified Eagle Medium: Nutrient Mixture F-12. The cells were grown at 37° C. and 5% CO2 in an incubator with saturating humidity.
# Cell proliferation was measured using trypan blue exclusion assay. The cells were cultured in the absence or presence of the METTL3 inhibitor STM2457 at a dose range from 1-10 μM for 24 hours. DMSO was used as a vehicle control. Cells were trypsinized, collected by centrifuge, and resuspended in serum-free medium. Equal volumes of 0.4% trypan blue and cell suspension were mixed and cells were counted using a hemacytometer. This assay was performed three times in triplicate.
Compound,tumor multiplicity and size ([1]; genetically predisposed animals),tumor-suppressor-gene penetrance ([1]; spontaneous frequency 65%),cell proliferation of UF cells (relative cell numbers) (HuLM cells)
CC/C(=C(/CC)c1ccc(O)cc1)c1ccc(O)cc1 [diethylstilbestrol],increases,> 90%,–
STM2457,–,–,decreases the cell proliferation
